Reference: ChEMBL document CHEMBL1201862, “PubChem BioAssay data set” (2004)
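The compound was tested at five concentrations on cells cultured in 96-well plates, with a 48-hour exposure period. At the GI50, growth is halved.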 Calls of active or inactive are those of the source. Rule as the data show it: active = GI50 up to about 1.1 µM and inactive = higher.

Legend:
Experiment in all cases: NCI anticancer screen, dose series, 48 h
SW-620 = test system: SW-620
SNB-75 = test system: SNB-75
ACHN = test system: ACHN
A549 = test system: A549
OVCAR-3 = test system: OVCAR-3
MDA-MB-231 = test system: MDA-MB-231
SK-MEL-2 = test system: SK-MEL-2
SN12C = test system: SN12C
IGROV-1 = test system: IGROV-1
SF-295 = test system: SF-295
Malme-3M = test system: Malme-3M
SK-MEL-5 = test system: SK-MEL-5
T47D = test system: T47D
NCI/ADR-RES = test system: NCI/ADR-RES
HT-29 = test system: HT-29
HOP-62 = test system: HOP-62
PC-3 = test system: PC-3
OVCAR-8 = test system: OVCAR-8
SF-268 = test system: SF-268
EKVX = test system: EKVX
COLO 205 = test system: COLO 205
SR = test system: SR
LOX IMVI = test system: LOX IMVI
NCI-H522 = test system: NCI-H522
UACC-62 = test system: UACC-62
M14 = test system: M14
Hs-578T = test system: Hs-578T
SK-OV-3 = test system: SK-OV-3
HOP-92 = test system: HOP-92
HCT-15 = test system: HCT-15
UACC-257 = test system: UACC-257
OVCAR-4 = test system: OVCAR-4
NCI-H460 = test system: NCI-H460
RXF 393 = test system: RXF 393
HL-60 = test system: HL-60
SF-539 = test system: SF-539
NCI-H226 = test system: NCI-H226
HCC 2998 = test system: HCC 2998
MDA-MB-435 = test system: MDA-MB-435
NCI-H23 = test system: NCI-H23
UO-31 = test system: UO-31
TK-10 = test system: TK-10
CCRF-CEM = test system: CCRF-CEM
OVCAR-5 = test system: OVCAR-5
A498 = test system: A498
786-0 = test system: 786-0
RPMI-8226 = test system: RPMI-8226
SNB-19 = test system: SNB-19
K562 = test system: K562
MOLT-4 = test system: MOLT-4
U-251 = test system: U-251
SK-MEL-28 = test system: SK-MEL-28
MDA-N = test system: MDA-N
DU-145 = test system: DU-145
KM12 = test system: KM12
MCF7 = test system: MCF7
CAKI-1 = test system: CAKI-1
BT-549 = test system: BT-549
HCT-116 = test system: HCT-116

c1cc2nnc1SCCSCCSCCSc1ccc(nn1)SCCSCCSCCS2
GI50 (SW-620): > 100 µM (inactive)
GI50 (SNB-75): 45.7 µM (inactive)
GI50 (ACHN): > 100 µM (inactive)
GI50 (A549): > 100 µM (inactive)
GI50 (OVCAR-3): > 100 µM (inactive)
GI50 (MDA-MB-231): > 100 µM (inactive)
GI50 (SK-MEL-2): > 100 µM (inactive)
GI50 (SN12C): > 100 µM (inactive)
GI50 (IGROV-1): > 100 µM (inactive)
GI50 (SF-295): > 100 µM (inactive)
GI50 (Malme-3M): > 100 µM (inactive)
GI50 (SK-MEL-5): > 100 µM (inactive)
GI50 (T47D): > 100 µM (inactive)
GI50 (NCI/ADR-RES): > 100 µM (inactive)
GI50 (HT-29): > 100 µM (inactive)
GI50 (HOP-62): 44.9 µM (inactive)
GI50 (PC-3): > 100 µM (inactive)
GI50 (OVCAR-8): > 100 µM (inactive)
GI50 (SF-268): > 100 µM (inactive)
GI50 (EKVX): > 100 µM (inactive)
GI50 (COLO 205): > 100 µM (inactive)
GI50 (SR): > 100 µM (inactive)
GI50 (LOX IMVI): > 100 µM (inactive)
GI50 (NCI-H522): > 100 µM (inactive)
GI50 (UACC-62): > 100 µM (inactive)
GI50 (M14): > 100 µM (inactive)
GI50 (Hs-578T): 64.7 µM (inactive)
GI50 (SK-OV-3): > 100 µM (inactive)
GI50 (HOP-92): 57.4 µM (inactive)
GI50 (HCT-15): > 100 µM
GI50 (UACC-257): > 100 µM (inactive)
GI50 (OVCAR-4): > 100 µM (inactive)
GI50 (NCI-H460): > 100 µM (inactive)

O=C1CC(CC(O)[C@@H]2CCCC[C@@H]2O)CC(=O)N1c1ccccc1 (some centres not stated)
GI50 (SW-620): > 100 µM (inactive)
GI50 (RXF 393): > 100 µM (inactive)
GI50 (HL-60): > 100 µM (inactive)
GI50 (SF-539): > 100 µM (inactive)
GI50 (SNB-75): > 100 µM (inactive)
GI50 (NCI-H226): > 100 µM (inactive)
GI50 (ACHN): > 100 µM (inactive)
GI50 (HCC 2998): > 100 µM (inactive)
GI50 (A549): > 100 µM (inactive)
GI50 (MDA-MB-435): > 100 µM (inactive)
GI50 (OVCAR-3): > 100 µM (inactive)
GI50 (MDA-MB-231): > 100 µM (inactive)
GI50 (NCI-H23): > 100 µM (inactive)
GI50 (UO-31): > 100 µM (inactive)
GI50 (SN12C): > 100 µM (inactive)
GI50 (IGROV-1): > 100 µM (inactive)
GI50 (TK-10): > 100 µM (inactive)
GI50 (SF-295): > 100 µM (inactive)
GI50 (CCRF-CEM): > 100 µM (inactive)
GI50 (OVCAR-5): > 100 µM (inactive)
GI50 (Malme-3M): > 100 µM (inactive)
GI50 (SK-MEL-5): > 100 µM (inactive)
GI50 (A498): > 100 µM (inactive)
GI50 (NCI/ADR-RES): > 100 µM (inactive)
GI50 (HT-29): > 100 µM (inactive)
GI50 (786-0): > 100 µM (inactive)
GI50 (HOP-62): > 100 µM (inactive)
GI50 (RPMI-8226): > 100 µM (inactive)
GI50 (PC-3): > 100 µM (inactive)
GI50 (OVCAR-8): > 100 µM (inactive)
GI50 (SF-268): > 100 µM (inactive)
GI50 (SR): > 100 µM (inactive)
GI50 (SNB-19): > 100 µM (inactive)
GI50 (LOX IMVI): > 100 µM (inactive)
GI50 (NCI-H522): > 100 µM (inactive)
GI50 (K562): > 100 µM (inactive)
GI50 (UACC-62): > 100 µM (inactive)
GI50 (M14): > 100 µM (inactive)
GI50 (MOLT-4): > 100 µM (inactive)
GI50 (U-251): > 100 µM (inactive)
GI50 (Hs-578T): > 100 µM (inactive)
GI50 (SK-MEL-28): > 100 µM (inactive)
GI50 (MDA-N): > 100 µM (inactive)
GI50 (DU-145): > 100 µM (inactive)
GI50 (HOP-92): 83.8 µM (inactive)
GI50 (KM12): > 100 µM (inactive)
GI50 (MCF7): > 100 µM (inactive)
GI50 (CAKI-1): > 100 µM (inactive)
GI50 (HCT-15): > 100 µM
GI50 (UACC-257): > 100 µM (inactive)
GI50 (OVCAR-4): > 100 µM (inactive)
GI50 (BT-549): > 100 µM (inactive)
GI50 (NCI-H460): > 100 µM (inactive)
GI50 (HCT-116): > 100 µM (inactive)
